Reference: US12024506B2, “Compounds” (Oxford University Innovation Limited, priority 2018, dated 2024)
pIC50: −log10 of the molar value.

Key:
[1] = test system: H358 cells (ATCC CRL-5807); experiment: Cell viability assay 1 (CellTiter-Glo), H358 cells; format: cell-based; conditions: Homo sapiens, NCI-H358, 48 h, first value of the cell, read-out: Cell Viability H358 (concentration that decreases cell viability by 50%)
Method: (§1) Cells (A549 ATCC CCL-185) are cultured in Dulbecco's Modified Eagle's Medium plus 10% foetal calf serum and 2 mM L-glutamine at 37° C., 5% CO2. Cells are plated onto white clear bottom 96-well plates (5000 cells/well in 200 μl media) and left to adhere overnight at 37° C., 5% CO2. Next day, test compound (1 μl at 200× concentration in 100% DMSO) is added to give final test compound concentration 1× in 0.5% DMSO. After 48 h of incubation at 37° C., 5% CO2, 20 μl CellTiter-Glo reagent (Promega G7572) is added into each well. Plates are incubated at room temperature with shaking for 30 min and then luminescence is read using a PheraStar plate reader. The concentration of compounds that decrease cell viability by 50% is calculated from dose response curves generated using Dotmatics data analysis software.
In the H358 cell assay, cells (ATCC CRL-5807) are cultured in RPMI-1640 medium plus 10% foetal calf serum and 2 mM L-glutamine at 37° C., 5% CO2.

[2] = test system: DLD1 cells (ATCC CCL-221); experiment: Cell viability assay 1 (CellTiter-Glo), DLD1 cells; format: cell-based; conditions: Homo sapiens, DLD-1 cells, 48 h, second value of the cell, read-out: Cell Viability DLD-1 (concentration that decreases cell viability by 50%)
Method: as §1
In the DLD1 cell assay, cells (ATCC CCL-221) are cultured in RPMI-1640 medium plus 10% foetal calf serum and 2 mM L-glutamine at 37° C., 5% CO2.

[3] = target: T1, GST-human KRas166 (G12V) GPPNHP (Homo sapiens, UniProt P01116, G12V); experiment: KRas small-molecule screening by SPR (Biacore T200); format: binding; conditions: compound 100 uM, 5% DMSO buffer; immobilised GST-KRas166 (G12V) GPPNHP
T1 construct: made in house; host or cells: E. coli C41(DE3)
How it was run: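 Biacore T200 screen: compounds at 100 uM final in 5% DMSO buffer (100 mM NaCl, 5 mM MgCl2) over GPPNHP-bound GST-KRas166 G12V captured by anti-GST antibody (10,000–15,000 RU) versus GST-only channel. Expected 1:1 Rmax 63 RU; DMSO solvent correction applied.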

| Compound | pIC50 [1] | pIC50 [2] | SPR Response Units [3] [Response Units] |
| --- | --- | --- | --- |
| COc1cccc(-c2cccc3c2OC(CN(Cc2ccc(OCCN(C)C)cc2)Cc2cccnc2)CO3)n1 (stereo not drawn) [Example 31, {2-[4-({[8-(6-Methoxy-pyridin-2-yl)-2,3-dihydrobenzo[1,4]dioxin-2-ylmethyl]-pyridin3-ylmethyl-amino}-methyl)-phenoxy]-ethyl}-dimethyl-amine] | 4.74 | 5.52 | 119 |
| COc1nc(-c2cccc3c2OCCO3)ccc1Nc1cccc(CC(=O)N2CCN(C)CC2)c1 [Example 204, 2-{3-[6-(2,3-Dihydro-benzo[1,4]dioxin-5-yl)-2-methoxy-pyridin-3-ylamino]-phenyl}-1-(4-methyl-piperazin-1-yl)-ethanone] | 4.70 | 4.75 | 423 |
| COc1nc(-c2cccc3c2OCCO3)ccc1Nc1cccc(C2CCC(=O)N2)c1 (stereo not drawn) [Example 62, 5-{3-[6-(2,3-Dihydro-benzo[1,4]dioxin-5-yl)-2-methoxy-pyridin-3-ylamino]-phenyl}-pyrrolidin-2-one] | 5.07 | 4.86 | 72 |
| COc1cccc(-c2cccc3c2OC(CNCc2ccc(OCCN(C)C)cc2)CO3)n1 (stereo not drawn) [Example 26, {2-[4-({[8-(6-Methoxy-pyridin-2-yl)-2,3-dihydro-benzo[1,4]dioxin-2-ylmethyl]-amino}-methyl)-phenoxy]-ethyl}-dimethyl-amine] | 4.02 | 5.40 | 53 |
| COc1nc(-c2cccc3c2OCCO3)ccc1Nc1cccc([C@H]2CCCN2)c1 [Example 74, [6-(2,3-Dihydro-benzo[1,4]dioxin-5-yl)-2-methoxy-pyridin-3-yl]-((R)-3-pyrrolidin-2-yl-phenyl)-amine] | 5.51 | 5.22 | 110 |
| CN(C)Cc1cccc(Nc2ccc(-c3cccc4c3OCCO4)cc2)c1.O=CO [Example 70, [4-(2,3-Dihydro-benzo[1,4]dioxin-5-yl)-phenyl]-(3-dimethylaminomethyl-phenyl)-amine. formate salt] | 5.07 | 4.97 | 86 |
| COc1ccc(-c2cccc3c2OC(CNC(=O)c2ccc(CN4CCN(C)CC4)o2)CO3)cn1 (stereo not drawn) [Example 45a, 5-(4-Methyl-piperazin-1-ylmethyl)-furan-2-carboxylic acid [8-(6-methoxy-pyridin-3-yl)-2,3-dihydro-benzo[1,4]dioxin-2-ylmethyl]-amide] |  |  | 90 |
| CC(C)(C)OC(=O)NCc1ccc(C(=O)N2CCN(c3cccc4c3OCCO4)CC2)cc1 [Example 169, {4-[4-(2,3-Dihydro-benzo[1,4]dioxin-5-yl)-piperazine-1-carbonyl]-benzyl}-carbamic acid tert-butyl Ester] |  |  | 25 |
| COc1cccc(-c2cccc3c2O[C@H](CNC(=O)C2CCN(Cc4cnccn4)CC2)CO3)n1 [Example 48, 1-Pyrazin-2-ylmethyl-piperidine-4-carboxylic acid [(R)-8-(6-methoxy-pyridin-2-yl)-2,3-dihydro-benzo[1,4]dioxin-2-ylmethyl]-amide] |  |  | 54 |
| CN1CCN(Cc2ccc(C(=O)NCC3COc4cccc(-c5cccc(=O)[nH]5)c4O3)o2)CC1 (stereo not drawn) [Example 52, 5-(4-Methyl-piperazin-1-ylmethyl)-furan-2-carboxylic acid [8-(6-oxo-1,6-dihydro-pyridin-2-yl)-2,3-dihydro-benzo[1,4]dioxin-2-ylmethyl]-amide] |  |  | 18 |

Results, then the compound that gave them:

| pIC50 [1] | pIC50 [2] | SPR Response Units [3] [Response Units] | Compound |
| --- | --- | --- | --- |
| 4.51 | 5.14 | 194 | COc1nc(-c2cccc3c2OCCO3)ccc1Nc1ccc(C(=O)NCC2CCNC(=O)C2)cc1 (stereo not drawn) [Example 196, 4-[6-(2,3-Dihydro-benzo[1,4]dioxin-5-yl)-2-methoxy-pyridin-3-ylamino]-N-(2-oxo-piperidin-4-ylmethyl)-benzamide] |
| 4.90 | 4.96 | 204 | COc1cc(-c2cccc3c2OCCO3)ccc1Nc1ccc(CNCC2COCCN2)cc1 (stereo not drawn) [Example 132, [4-(2,3-Dihydro-benzo[1,4]dioxin-5-yl)-2-methoxy-phenyl]-(4-{[(morpholin-3-ylmethyl)-amino]-methyl}-phenyl)-amine] |
| 5.44 | 5.92 | 10 | NCc1ccc(C(=O)N2CCN(c3cccc4c3OCCO4)CC2)cc1 [Example 184, (4-Aminomethyl-phenyl)-[4-(2,3-dihydro-benzo[1,4]dioxin-5-yl)-piperazin-1-yl]-methanone] |
| 4.80 | 5.09 | 63 | COc1nc(-c2cccc3c2OCCO3)ccc1Nc1ccc(C(=O)NCc2cccnc2)cc1 [Example 175, 4-[6-(2,3-Dihydro-benzo[1,4]dioxin-5-yl)-2-methoxy-pyridin-3-ylamino]-N-pyridin-3-ylmethyl-benzamide] |
| 4.59 | 5.32 | 136 | COc1nc(-c2cccc3c2OCCO3)ccc1Nc1cccc(C(=O)NCC2CCC(=O)NC2)c1 (stereo not drawn) [Example 164, 3-[6-(2,3-Dihydro-benzo[1,4]dioxin-5-yl)-2-methoxy-pyridin-3-ylamino]-N-(6-oxo-piperidin-3-ylmethyl)-benzamide] |
| 5.18 | 6.85 | 30 | COc1nc(-c2cccc3c2OCCO3)ccc1Nc1ccc(CNCC2CCN(C(=O)OC(C)(C)C)CC2)cc1 [Example 171, 4-({4-[6-(2,3-Dihydro-benzo[1,4]dioxin-5-yl)-2-methoxy-pyridin-3-ylamino]-benzylamino}-methyl)-piperidine-1-carboxylic acid tert-butyl ester] |
| 5.82 | 5.07 | 424 | COc1nc(-c2cccc3c2OCCO3)ccc1Nc1cccc(CN2CCCC(C(N)=O)C2)c1 (stereo not drawn) [Example 200, 1-{3-[6-(2,3-Dihydro-benzo[1,4]dioxin-5-yl)-2-methoxy-pyridin-3-ylamino]-benzyl}-piperidine-3-carboxylic acid amide] |
| 4.59 | 5.66 | 916 | COc1nc(-c2cccc3c2OCCO3)ccc1Nc1ccc(CNCC2CCN(Cc3ccccc3)CC2)cc1 [Example 187, (4-{[(1-Benzyl-piperidin-4-ylmethyl)-amino]-methyl}-phenyl)-[6-(2,3-dihydro-benzo[1,4]dioxin-5-yl)-2-methoxy-pyridin-3-yl]-amine] |
| 4.91 | 4.96 | 230 | COc1nc(-c2cccc3c2OC(CNC(=O)C2CCOCC2)CO3)ccc1Nc1ccc(CNCc2ccn[nH]2)cc1 (stereo not drawn) [Example 120, Tetrahydro-pyran-4-carboxylic acid {8-[6-methoxy-5-(4-{[(2H-pyrazol-3-ylmethyl)-amino]-methyl}-phenylamino)-pyridin-2-yl]-2,3-dihydro-benzo[1,4]dioxin-2-ylmethyl}-amide] |
| 4.47 | 4.91 | 339 | COc1nc(-c2cccc3c2OCCO3)ccc1Nc1cccc(CC(=O)NC2CCN(C)CC2)c1 [Example 203, 2-{3-[6-(2,3-Dihydro-benzo[1,4]dioxin-5-yl)-2-methoxy-pyridin-3-ylamino]-phenyl}-N-(1-methyl-piperidin-4-yl)-acetamide] |
| 4.92 | 5.60 |  | COc1nc(-c2cccc3c2OCCO3)ccc1Nc1ccccc1C(=O)NCC1CCNCC1 [Example 150, 2-[6-(2,3-Dihydro-benzo[1,4]dioxin-5-yl)-2-methoxy-pyridin-3-ylamino]-N-piperidin-4-ylmethyl-benzamide] |
| 4.81 | 5.08 |  | COc1nc(-c2cccc3c2OCCO3)ccc1Nc1cccc(C(=O)NCc2cn[nH]c2)c1 [Example 183, 3-[6-(2,3-Dihydro-benzo[1,4]dioxin-5-yl)-2-methoxy-pyridin-3-ylamino]-N-(1H-pyrazol-4-ylmethyl)-benzamide] |
|  |  | 7 | CN1CCC(CC(=O)Nc2ccc(-c3cccc4c3O[C@H](CNC(=O)C3CCOCC3)CO4)nc2)CC1 [Example 92, Tetrahydro-pyran-4-carboxylic acid ((R)-8-{5-[2-(1-methyl-piperidin-4-yl)-acetylamino]-pyridin-2-yl}-2,3-dihydro-benzo[1,4]dioxin-2-ylmethyl)-amide] |
